Laboratory results from PMC8482806, “A Novel Blood-Brain Barrier-Permeable Chemotherapeutic Agent for the Treatment of Glioblastoma” (Cureus, 2021).

What was measured:
[1] = tested on: 8MGBA cells; assay: Cell viability assay (CellTiter-Glo), 8MGBA; assay type: cell-based; details: Homo sapiens, 8-MG-BA; Cell Line: 8MGBA; read-out: LC50 (μM ± SD)
Description: (§1) In vitro activity of QBS10072S was assessed using a modified clonogenic cell viability assay in 96-well clear-bottom plates. For the LLC-PK1 inducible LAT1-expressing cell line, 1000 cells/well were plated and cells were treated with either butyrate alone (non-induced) or with both butyrate and doxycycline (induced) as described above. For GBM cell lines, 2000 cells/well were plated. On day 2 (GBM) or day 3 (LLC-PK1) after original plating, cells were washed twice with PBS and incubated with 50 μL of various concentrations of QBS10072S in PBS in at least quadruplicate. After 30 minutes at 37°C, 200 μL of growth medium was added to each well. Clonal populations were allowed to grow until the control wells (mock treatment) were near confluence (7 to 10 days). At this point, 170 μL media were removed and 60 μL CellTiter-Glo® (Promega, Madison, WI) were added to each well. Plates were placed on an orbital shaker for three minutes to lyse the cells and then incubated for an additional 10 minutes at RT to stabilize the luminescent signal. Luminescence was recorded using an EnSpire® Multimode Plate Reader (Perkin Elmer). Background (luminescence from wells incubated with 100 μM melphalan or lomustine) was subtracted and data were normalized to the control. EC50s were determined by non-linear regression using GraphPad Prism.

[2] = tested on: GBM cell lines; assay: Cell viability assay (CellTiter-Glo), multiple GBM cell lines; assay type: cell-based; details: Homo sapiens; range over cell lines; read-out: EC50s, viability loss in multiple GBM cell lines
Description: as §1

[3] = tested on: U251 intracerebral human GBM xenograft; assay: U251 intracerebral human GBM xenograft in athymic mice (BLI, survival); assay type: in vivo, mouse
Description: Five-week-old female athymic mice (nu/nu, homozygous: Simonsen Laboratories, Gilroy, CA), housed under aseptic conditions, received intracranial tumor cell injection as previously described and as approved by the University of California San Francisco Institutional Animal Care and Use Committee, Protocol #: AN111064-03. Briefly, mice were anesthetized by intraperitoneal injection of ketamine (100 mg/kg) and xylazine (10 mg/kg) and injected with 3 μL of tumor cell suspension (300,000 cells total) into the right caudate-putamen. Coordinates: 3 mm to the right from bregma, on top of the coronal suture, and 3.5 mm depth. Injection rate: ~30 second/uL. For treatment studies, eight mice were used for each group for LN229 studies and nine mice per group for U251 studies. Treatments began when tumors entered the log-phase of growth as measured by luminescence, for the LN229 experiment on Day 21 and for U251 experiments on Day 14.
Dosing levels and frequency are described in the figure legends.
For bioluminescence imaging (BLI), mice were anesthetized as above, then administered 150 mg/kg of luciferin (D-luciferin potassium salt, Gold Biotechnology, St. Louis, MO) via intraperitoneal injection. Ten minutes after luciferin injection, mice were examined for tumor bioluminescence with an IVIS Lumina imaging station and Living Image software (Caliper Life Sciences, Alameda, CA), and regions of interest were recorded as photons per second per steradian per square cm.
Mice were anesthetized via inhalation of 2.5% isoflurane with 1 L of oxygen per minute for five minutes prior to being positioned on an irradiation platform located 16.3 cm from a cesium-137 source (JL Shepherd & Associates, San Fernando, CA). Eyes, respiratory tracts, and bodies were protected with lead shielding. Mice received whole-brain irradiation at a dose rate of 247 cGy/min until 1.5 Gy radiation had been administered. After irradiation, animals were monitored until recovery. Mice were irradiated once daily for five consecutive days. All mice received the first radiation dose when tumors were in a log-phase growth (Day 14) as determined by BLI.
Tumor-bearing mice were treated with temozolomide (TMZ) 4 mg/kg via oral gavage, starting on day 14 post U251 cell injection once daily for five days - concurrent therapy with RT. TMZ was obtained from the UCSF hospital pharmacy and formulated with the Ora-Plus suspending vehicle (Perrigo, Dublin, Ireland) with a working concentration of 1 mg/mL.

Cc1ccc(N(CCCl)CCCl)cc1C[C@H](N)CC(=O)O [QBS10072S, (+)-(3S)-amino-4-[5-[bis(2-chloroethyl)amino]-2-methyl-phenyl]butanoic acid]
CC50 [1]: 34 ± 20 µM
EC50 [2]: 12 to 40 µM
body weight loss over the course of the study ([3]; 10 mg/kg IV once a week for six weeks): no significant body weight loss
median survival time ([3]; 10 mg/kg IV once a week for six weeks, vehicle 37): 70 days
median survival time ([3]; QBS10072S 10 mg/kg once a week for 4 weeks + RT 1.5 Gy daily for 5 days, vehicle 35): 64 days
median survival time ([3]; QBS10072S alone, 10 mg/kg once a week for 4 weeks, vehicle 35): 45 days
tumor growth inhibition (TGI) vs. vehicle ([3]; day 35, 10 mg/kg IV once a week for six weeks): 95%
%TGI ([3]; day 35, QBS10072S alone, 10 mg/kg once a week for 4 weeks): 86%
%TGI ([3]; day 35, combination of QBS10072S 10 mg/kg once a week for 4 weeks and RT 1.5 Gy once daily for 5 days): 96%
